Experimental data reported in PubChem BioAssay (NCI).
Where “and” joins values, the source holds several entries; their conditions need not be identical. Equal entries are not always repeated.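 A five-concentration, 48-hour dose response in 96-well plates underlies each endpoint, interpolated linearly between surrounding concentrations. GI50: concentration for 50% inhibition of growth. TGI denotes the concentration required for complete inhibition of growth.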

What was measured:
Assay in all cases: inhibition of tumour cell growth, NCI panel, 48 h
HS 578T breast = system: HS 578T breast
NCI/ADR-RES ovarian = system: NCI/ADR-RES ovarian
PC-3 prostate = system: PC-3 prostate
DLD-1 colon = system: DLD-1 colon
HOP-18 NSCLC = system: HOP-18 NSCLC
KM20L2 colon = system: KM20L2 colon
M19-MEL melanoma = system: M19-MEL melanoma
MDA-N = system: MDA-N
RXF-631 renal = system: RXF-631 renal

COc1ccc2c(c1)C(=O)/C(=C/c1ccc(OCC(=O)c3ccc(Cl)cc3)cc1)O2
GI50 (HS 578T breast): 22.1 µM
TGI (HS 578T breast): 84.6 µM
GI50 (NCI/ADR-RES ovarian): 16.3 µM
TGI (NCI/ADR-RES ovarian): 41.8 µM
GI50 (PC-3 prostate): 14.7 µM
TGI (PC-3 prostate): 69.1 µM

COC(=O)C12C3C=CC(O3)C1C1C=CC2O1 (stereo unspecified)
TGI (DLD-1 colon): > 100 µM
TGI (HOP-18 NSCLC): > 100 µM
TGI (KM20L2 colon): > 100 µM
TGI (M19-MEL melanoma): > 100 µM

Oc1ccc(-c2nc(-c3ccc(F)cc3)c(-c3ccncc3)[nH]2)cc1
GI50 (NCI/ADR-RES ovarian): 35.6 µM
TGI (NCI/ADR-RES ovarian): > 100 µM
GI50 (PC-3 prostate): 14.1 µM
TGI (PC-3 prostate): > 100 µM

CCOC(=O)/C(=C/c1c(-c2ccccc2)[nH]c2ccccc12)C(=O)c1ccc(Cl)cc1
GI50 (HS 578T breast): 3.73 µM
TGI (HS 578T breast): 57.5 µM
GI50 (NCI/ADR-RES ovarian): 2.69 µM
TGI (NCI/ADR-RES ovarian): > 100 µM
GI50 (PC-3 prostate): 3.08 µM
TGI (PC-3 prostate): > 100 µM

COc1ccc(C(NCCNC(c2ccc(OC)c(OC)c2)c2cc3c(cc2O)OCO3)c2cc3c(cc2O)OCO3)cc1OC (stereo unspecified)
TGI (HS 578T breast): > 100 µM
TGI (MDA-N): 3.58 µM
TGI (NCI/ADR-RES ovarian): 8.27 µM
TGI (PC-3 prostate): 6.64 µM

Nc1ccc(C(=O)O)c2[nH]c3ccccc3c(=O)c12
TGI (DLD-1 colon): > 100 µM
TGI (HOP-18 NSCLC): > 100 µM
TGI (KM20L2 colon): > 100 µM
TGI (M19-MEL melanoma): > 100 µM

COc1cc(C2c3cc4c(cc3[C@@H](OCCN)[C@H]3COC(=O)C23)OCO4)cc(OC)c1O (stereo partly specified)
TGI (DLD-1 colon): 6.76 µM
TGI (HOP-18 NSCLC): > 100 µM
TGI (KM20L2 colon): 2.79 µM
TGI (M19-MEL melanoma): 2.14 µM

CCN=C(N)CSS(=O)(=O)O
TGI (HS 578T breast): > 100 µM
TGI (MDA-N): > 100 µM
TGI (NCI/ADR-RES ovarian): > 100 µM
TGI (PC-3 prostate): > 100 µM

CC(=O)OCC1OC(n2cnc3c(I)nc(I)nc32)C(OC(C)=O)C1OC(C)=O (stereo unspecified)
TGI (DLD-1 colon): 24.2 µM
TGI (KM20L2 colon): 32.7 µM
TGI (M19-MEL melanoma): 12.2 µM
TGI (RXF-631 renal): 34.9 µM

c1ccc(CNc2nc(Nc3ccc(-c4nc5ccccc5[nH]4)cc3)c3cn[nH]c3n2)cc1
GI50 (HS 578T breast): 2.45 µM
TGI (HS 578T breast): 8.22 µM
GI50 (NCI/ADR-RES ovarian): 2.22 µM
TGI (NCI/ADR-RES ovarian): 5.99 µM
GI50 (PC-3 prostate): 1.78 µM
TGI (PC-3 prostate): 6.36 µM

COc1cc2c(c(Br)c1N)-c1cc(Br)c(N)cc1C2=O
GI50 (HS 578T breast): 3.02 µM
TGI (HS 578T breast): > 100 µM
GI50 (NCI/ADR-RES ovarian): 5.31 µM
TGI (NCI/ADR-RES ovarian): > 100 µM
GI50 (PC-3 prostate): > 100 µM
TGI (PC-3 prostate): > 100 µM

Cc1ccc(C)c(NC(=O)CCC(=O)CC(=O)C(C)(C)C)c1
TGI (DLD-1 colon): > 100 µM
TGI (HOP-18 NSCLC): > 100 µM
TGI (KM20L2 colon): > 100 µM
TGI (M19-MEL melanoma): > 100 µM

O=C(Nc1ccc(Cl)cc1)C(=O)C1=C(O)c2ccccc2OC1
TGI (HS 578T breast): > 100 µM
TGI (MDA-N): > 100 µM
TGI (NCI/ADR-RES ovarian): > 100 µM
TGI (PC-3 prostate): > 100 µM

NCCCNCCCNc1nc2ccccc2c2[nH]c3ccccc3c12
GI50 (HS 578T breast): 0.132 µM
TGI (HS 578T breast): 1.54 µM
GI50 (NCI/ADR-RES ovarian): 0.645 µM and 0.621 µM
TGI (NCI/ADR-RES ovarian): > 100 µM
GI50 (PC-3 prostate): 0.481 µM
TGI (PC-3 prostate): 2.14 µM

Nc1nccc(C#Cc2cncnc2Nc2ccc(OCc3cccc(F)c3)c(Cl)c2)n1
GI50 (HS 578T breast): 6.32 µM
TGI (HS 578T breast): 20.5 µM
GI50 (NCI/ADR-RES ovarian): 6.6 µM
TGI (NCI/ADR-RES ovarian): > 25 µM
GI50 (PC-3 prostate): 4.5 µM
TGI (PC-3 prostate): 9.63 µM

CC[C@]12C=CCN3CC[C@]4(C(=C(C(=O)OC)C1)Nc1ccccc14)[C@@H]32
GI50 (HS 578T breast): 2.99 µM
TGI (HS 578T breast): 17.2 µM
GI50 (NCI/ADR-RES ovarian): 6.39 µM
TGI (NCI/ADR-RES ovarian): 58.1 µM
GI50 (PC-3 prostate): 5.36 µM
TGI (PC-3 prostate): 22.8 µM

COc1cccc(C2C3=C(COC3=O)N(CCO)c3cc4c(cc32)CCC4)c1 (stereo unspecified)
GI50 (HS 578T breast): 0.0285 µM
TGI (HS 578T breast): 32.4 µM
GI50 (NCI/ADR-RES ovarian): 0.0556 µM
TGI (NCI/ADR-RES ovarian): 0.23 µM
GI50 (PC-3 prostate): 0.0577 µM
TGI (PC-3 prostate): > 50 µM

CCOC(=O)c1c(-c2ccccc2)[nH]c2ccccc2c1=O
TGI (HS 578T breast): > 100 µM
TGI (MDA-N): > 100 µM
TGI (NCI/ADR-RES ovarian): > 100 µM
TGI (PC-3 prostate): > 100 µM

COC(=O)[C@@]12C3=NO[C@]1(C(=O)OC)C(O[Si](C)(C)C(C)(C)C)C1OC(C)(C)OC1[C@@H]2[C@@H](OCc1ccccc1)CC3 (stereo partly specified)
TGI (DLD-1 colon): > 100 µM
TGI (HOP-18 NSCLC): > 100 µM
TGI (KM20L2 colon): > 100 µM
TGI (M19-MEL melanoma): > 100 µM

COc1ccc(C(=O)Nc2ccccc2C#N)cc1
TGI (DLD-1 colon): > 100 µM
TGI (HOP-18 NSCLC): > 100 µM
TGI (KM20L2 colon): > 100 µM
TGI (M19-MEL melanoma): > 100 µM

COC(=O)C1(c2ccc(OC)cc2)NC(c2ccccc2)C2C(=O)N(c3ccc(OC)cc3)C(=O)C21 (stereo unspecified)
TGI (DLD-1 colon): > 100 µM
TGI (KM20L2 colon): > 100 µM
TGI (RXF-631 renal): > 100 µM

O=C1c2cccnc2-c2nc(-c3ccccc3)cc3c2c1nc1ccccc13
GI50 (HS 578T breast): 16.6 µM
TGI (HS 578T breast): 42.9 µM
GI50 (MDA-N): 1.74 µM
TGI (MDA-N): 3.46 µM
GI50 (NCI/ADR-RES ovarian): 11.9 µM
TGI (NCI/ADR-RES ovarian): 32.7 µM
GI50 (PC-3 prostate): 3.42 µM
TGI (PC-3 prostate): 73.2 µM

Fc1cccc(C=NC23CC4CC(CC(C4)C2)C3)c1
TGI (DLD-1 colon): > 100 µM
TGI (HOP-18 NSCLC): > 100 µM
TGI (KM20L2 colon): > 100 µM
TGI (M19-MEL melanoma): > 100 µM

Cc1nc(N=C(N)N)nc2ccc3ccccc3c12
GI50 (HS 578T breast): 0.606 µM
TGI (HS 578T breast): 3.16 µM
GI50 (NCI/ADR-RES ovarian): 11.4 µM
TGI (NCI/ADR-RES ovarian): 36 µM
GI50 (PC-3 prostate): 1.26 µM
TGI (PC-3 prostate): 4.1 µM

S=c1nc(/C=C/c2ccc(Cl)c(Cl)c2)[nH][nH]1
TGI (DLD-1 colon): > 100 µM
GI50 (HS 578T breast): > 100 µM
TGI (HS 578T breast): > 100 µM
TGI (KM20L2 colon): > 100 µM
GI50 (NCI/ADR-RES ovarian): > 100 µM
TGI (NCI/ADR-RES ovarian): > 100 µM
GI50 (PC-3 prostate): 53.4 µM
TGI (PC-3 prostate): > 100 µM

CC1(C)CCC(CN2CCN(c3ccc(C(=O)NS(=O)(=O)c4ccc(NCC5CCOCC5)c([N+](=O)[O-])c4)c(Oc4cnc5[nH]ccc5c4)c3)CC2)=C(c2ccc(Cl)cc2)C1
GI50 (HS 578T breast): 2.94 µM
TGI (HS 578T breast): 12.2 µM
GI50 (NCI/ADR-RES ovarian): 5 µM
TGI (NCI/ADR-RES ovarian): 27.3 µM
GI50 (PC-3 prostate): 1.93 µM
TGI (PC-3 prostate): 5.54 µM

CCOC(=O)C12CN(C34CC5CC(CC(C5)C3)C4)CC(C(=O)OCC)(C1=O)C(c1ccccc1)OC2c1ccccc1 (stereo unspecified)
TGI (DLD-1 colon): > 100 µM
TGI (KM20L2 colon): > 100 µM
TGI (M19-MEL melanoma): > 100 µM

CN(C)c1ccc(N=C(C#N)c2nc(N)nc(N3CCOCC3)n2)cc1
GI50 (NCI/ADR-RES ovarian): 27.1 µM
TGI (NCI/ADR-RES ovarian): 62.8 µM
GI50 (PC-3 prostate): 44.1 µM
TGI (PC-3 prostate): > 100 µM

CC(=O)C(CN1CCOCC1)C(c1ccccc1)c1c(O)c2ccccc2oc1=O (stereo unspecified)
TGI (HS 578T breast): > 100 µM
TGI (MDA-N): > 100 µM
TGI (NCI/ADR-RES ovarian): > 100 µM
TGI (PC-3 prostate): > 100 µM

c1ccc(COc2ccc(Nc3ncnc4ccc(-c5ccco5)cc34)cc2)cc1
GI50 (HS 578T breast): 7.71 µM
TGI (HS 578T breast): > 23.5 µM
GI50 (NCI/ADR-RES ovarian): 7.97 µM
TGI (NCI/ADR-RES ovarian): > 25 µM
GI50 (PC-3 prostate): 8.47 µM
TGI (PC-3 prostate): > 23.5 µM

COc1ccc(C2=NN(c3ccc(S(N)(=O)=O)cc3)C(c3ccc(Cl)cc3)C2)c(O)c1 (stereo unspecified)
GI50 (HS 578T breast): 3.93 µM
TGI (HS 578T breast): 19.5 µM
GI50 (NCI/ADR-RES ovarian): 3.98 µM
TGI (NCI/ADR-RES ovarian): 21.1 µM
GI50 (PC-3 prostate): 2.78 µM
TGI (PC-3 prostate): 14.6 µM

Cc1cc(N(CCC#N)CCC#N)ccc1N=Nc1ccc([N+](=O)[O-])cc1
TGI (KM20L2 colon): > 100 µM
TGI (M19-MEL melanoma): > 100 µM
